In assay [1] the target is T1, Glycogen synthase kinase-3 beta (Homo sapiens, UniProt P49841). Particulars: ReNcell VM, at 3 µM.
Target sequence in this assay (P49841 whole entry, looked up): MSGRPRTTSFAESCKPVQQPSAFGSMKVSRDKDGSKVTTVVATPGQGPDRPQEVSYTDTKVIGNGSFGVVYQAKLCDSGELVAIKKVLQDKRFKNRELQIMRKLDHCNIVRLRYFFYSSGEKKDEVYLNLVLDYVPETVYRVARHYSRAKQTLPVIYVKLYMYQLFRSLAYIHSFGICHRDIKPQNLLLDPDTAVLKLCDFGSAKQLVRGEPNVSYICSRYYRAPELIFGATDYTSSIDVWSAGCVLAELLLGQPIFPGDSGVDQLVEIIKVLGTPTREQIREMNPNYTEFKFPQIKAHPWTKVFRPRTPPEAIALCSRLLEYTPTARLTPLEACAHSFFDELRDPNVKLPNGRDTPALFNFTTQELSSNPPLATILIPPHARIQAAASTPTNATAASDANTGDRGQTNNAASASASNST
For assay [2], the target named is T1, Glycogen synthase kinase-3 beta. Particulars: ReNcell VM, 3 uM.
Target sequence in this assay (P49841 whole entry, looked up): as above
Description: Inhibition of GSK3-beta in human ReNcell VM cells assessed as residual activity at 3 uM after 2 hrs by immunoprecipitation analysis relative to control
Assay [3] shares this target. The experiment in a line: Inhibition of GSK3-beta after 30 mins by luminescence assay.
Target sequence in this assay (P49841 whole entry): as the sequence (P49841 whole entry, looked up) above
A short description of assay [4]: Antiproliferative activity against human ReNcell VM cells assessed as growth doubling time at 3 uM measured every 24 hrs. The assay is classed as functional.
Assay [5] deals with ReNcell VM. The experiment in a line: Antiproliferative activity against human ReNcell VM cells assessed as reduction of cell proliferation at 3 uM after 72 hrs. The assay is classed as functional, cell-based.
Assay [6] in a line: Induction of neuronal differentiation in human ReNcell VM cells assessed as beta3-tubulin positive cells after 3 days by FACS analysis relative to control. It counts as functional.
Assay [7] addresses T1, Glycogen synthase kinase-3 beta. Particulars: ReNcell VM, 3 uM. This is another data set of the same source.
Target sequence in this assay (P49841 whole entry, looked up): as above
The target is the same in assay [8]. Particulars: ReNcell VM, 3 uM. This is another data set of the same source.
Target sequence in this assay (P49841 whole entry, looked up): as above
Assay [9] concerns ReNcell VM. The experiment in a line: Cytotoxicity against human ReNcell VM cells assessed as cell viability at 3 uM after 72 hrs. The assay is classed as functional, cell-based.
Assay [10] addresses T1, Glycogen synthase kinase-3 beta. The experiment in a line: Inhibition of GSK-3-beta-mediated Wnt signaling in human ReNcell VM cells assessed as increase in accumulation of beta-catenin at 1 uM after 2 hrs by ELISA relative to control. (In an ELISA, binding on a coated surface is turned into a signal by an enzyme label.)
Target sequence in this assay (P49841 whole entry, looked up): as above

pIC50: −log10 of the molar value. Calls of active or inactive are those of the source. No cut-off for these calls is given here.

One may read the inhibition as the change of the read-out against control, counted positive when it falls. Take `Cc1[nH]c2ccccc2c1C1=C(N2CCN(c3ccccc3)CC2)C(=O)N(C)C1=O`: the inhibition result in [1] was “inactive”.

In the case of `Cc1[nH]c2ccccc2c1C1=C(NCCc2ccccc2)C(=O)N(C)C1=O`, the inhibition entry in [1] is “inactive”.

As for `Cc1[nH]c2ccccc2c1C1=C(NCCc2c[nH]c3ccccc23)C(=O)N(C)C1=O`, the inhibition entry in assay [1] is “inactive”.

In the case of `CCCCNC(=O)C1=C(c2c(C)[nH]c3ccccc23)C(=O)N(CCCC)C1=O`, in assay [1], the inhibition entry was “inactive”.

Usually residual activity stands for the activity still measured, relative to the control. Read a low residual activity as little activity left. As usually defined, the pIC50 is the IC50 on a negative log10 scale, so that one unit is a factor of ten. Take `Cc1[nH]c2ccccc2c1C1=C(NCCc2ccc(F)cc2)C(=O)N(C)C1=O`: the residual activity in assay [2] was found to be 27%. Also, the negative logarithm of the IC50 (pIC50) in assay [3] was 7.28. For the same compound, the Time in assay [4] was 26.5 h. The outcome in the assay on ReNcell VM [5] was Active. In addition, in assay [6], the Activity worked out at 3.7%. The inhibition entry in assay [7] was “Active”. This compound also yielded an inhibition in assay [1] of 27%.

As for `Cc1[nH]c2ccccc2c1C1=C(NCCc2ccc(O)cc2)C(=O)N(C)C1=O`, the inhibition result in assay [1] was “inactive”.

Take `COc1ccc(CCNC2=C(c3c(C)[nH]c4ccccc34)C(=O)N(C)C2=O)cc1`: the inhibition result in assay [1] was “inactive”.

Turning to `CCCCNC1=C(c2c(C)[nH]c3ccccc23)C(=O)N(C)C1=O`, the inhibition result in assay [1] is “inactive”.

Regarding `CCCCOC(=O)C1=C(c2c(C)[nH]c3ccccc23)C(=O)N(C)C1=O`, the inhibition entry in [1] is “inactive”.

Regarding `CN1C(=O)C(NCCc2ccc(F)cc2)=C(c2c[nH]c3ccccc23)C1=O`, the inhibition entry in assay [1] is “inactive”.

As to `COc1ccc2[nH]cc(C3=C(NCCc4ccc(F)cc4)C(=O)N(C)C3=O)c2c1`, the inhibition entry in assay [1] was “inactive”.

Consider `CCCCNC(=O)C1=C(c2c(C)[nH]c3ccccc23)C(=O)N(C)C1=O`, for which the inhibition result in assay [1] was “inactive”.

As for `Cc1[nH]c2ccccc2c1C1=C(NCCc2ccc(Cl)cc2)C(=O)N(C)C1=O`, the inhibition result in assay [1] is “inactive”.

As to `Cn1cc(C2=C(c3ccc(Cl)cc3Cl)C(=O)NC2=O)c2ccccc21` [SB-216763], the residual activity in assay [2] came to 22%. Besides, the Time in assay [4] stood at 24.4 h. For the same compound, in the assay on ReNcell VM [5], the result was Active. Also, the inhibition in assay [8] was found to be 55%; in [1], 50%. The values for the Activity (in assay [6]; with ReNcell VM [9]) were 3.2% and “Not toxic”, respectively. Besides, the inhibition entry in assay [7] was “inactive”.

Turning to `CCOC(=O)C1=C(c2c(C)[nH]c3ccccc23)C(=O)N(C)C1=O`, the inhibition entry in assay [1] was “inactive”.

In the case of `Cc1[nH]c2ccccc2c1C1=C(N2CCOCC2)C(=O)N(C)C1=O`, the inhibition entry in [1] was “inactive”.

As for `CN1C(=O)C(NCCc2ccc(F)cc2)=C(c2c[nH]c3ccc(F)cc23)C1=O`, in [1], the inhibition result is “inactive”.

Consider `Cc1[nH]c2ccccc2c1C1=C(C(=O)N2CCOCC2)C(=O)N(C)C1=O`, for which, in [1], the inhibition result is “inactive”.

For the compound `Cc1[nH]c2ccccc2c1C1=C(C(=O)N2CCCCC2)C(=O)N(C)C1=O`, the inhibition result in assay [1] is “inactive”.

For `O=C1Cc2c([nH]c3ccc(Br)cc23)-c2ccccc2N1`, the inhibition in assay [10] turned out to be 30%.

Regarding `Cc1[nH]c2ccccc2c1C1=C(C(=O)N2CCN(c3ccccc3)CC2)C(=O)N(C)C1=O`, in assay [1], the inhibition result was “inactive”.

For `Cc1[nH]c2ccccc2c1C1=C(NCCc2ccc(F)c(F)c2)C(=O)N(C)C1=O`, in assay [1], the inhibition entry is “inactive”.

Regarding `CCCCNC1=C(c2c(C)[nH]c3ccccc23)C(=O)N(CCCC)C1=O`, in assay [1], the inhibition entry is “inactive”.

With `Cc1[nH]c2ccccc2c1C1=C(N2CCCCC2)C(=O)N(C)C1=O`, the inhibition result in [1] was “inactive”.

The values are drawn from ChEMBL document CHEMBL1250507, “Novel indolylmaleimide acts as GSK-3beta inhibitor in human neural progenitor cells” (Bioorg Med Chem, 2010).
